The results in this text go back to EP3287436B1, “COMPOUNDS AND COMPOSITIONS FOR USE IN THE TREATMENT OF BCAT1-MEDIATED DISEASES” (Ergon Pharmaceuticals LLC, priority 2016, dated 2018).

For test [1], the target named is T1, recombinant human BCAT1 (Homo sapiens, UniProt P54687).
T1 construct: purchased Abcam
T1 sequence (P54687 1-386): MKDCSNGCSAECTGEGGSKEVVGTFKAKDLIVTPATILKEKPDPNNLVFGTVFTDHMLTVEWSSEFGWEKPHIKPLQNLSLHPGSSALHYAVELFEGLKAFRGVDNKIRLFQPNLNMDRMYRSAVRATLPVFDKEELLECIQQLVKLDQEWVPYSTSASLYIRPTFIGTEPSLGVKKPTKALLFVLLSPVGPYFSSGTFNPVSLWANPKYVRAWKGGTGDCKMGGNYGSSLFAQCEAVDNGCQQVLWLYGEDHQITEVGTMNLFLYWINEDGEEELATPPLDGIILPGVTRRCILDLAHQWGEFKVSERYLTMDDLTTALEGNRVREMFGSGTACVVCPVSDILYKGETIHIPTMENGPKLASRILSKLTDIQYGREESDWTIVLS
As to the kind of experiment: Inhibition of BCAT1 enzymatic activity (NADH consumption, coupled leucine dehydrogenase assay). Particulars: for remaining activity at 0.001 µM: compound concentration 1 nM; for remaining activity at 0.01 µM: compound concentration 10 nM; for remaining activity at 0.1 µM: compound concentration 100 nM; for IC50: inhibition of the enzymatic activity of BCAT1, range stated for compounds 2, 7 and 8 together. It is filed as biochemical. The procedure: Inhibition of BCAT1 enzymatic activity by compounds 2. 7 and 8. The ability of the compounds as disclosed herein to inhibit BCAT1 enzymatic activity was confirmed spectrophotometrically. In this experiment, 0.2 to 0.5 µg of recombinant human BCAT1 from Abcam was added to 95 µL of a reaction buffer containing […] 5'-phosphate (PLP), 50 mM ammonium sulfate, 0.05 mM NADH, 5mM DTT, 5mM a-ketoglutarate, 10 mM leucine, and 0.95 U leucine dehydrogenase (EMD Chemicals) and various concentrations of compounds 2, 7 and 8. Addition of BCAT1 to the reaction mixture led to the consumption of NADH, which was measured fluorometrically (ex:330-370 nm; em:450 nm). The rate of change of fluorescence was then estimated over of period of 10 min (10 cycles; 1 cycle/min). The assay was performed in triplicate in a 96-well plate. In Table 1, the results were expressed as % Control Enzymatic Activity, which is defined as the BCAT1 activity observed in the reaction mixture in the absence of an inhibitor. […]

Test [2] concerns TGF-β1-stimulated human fibroblasts. As to the kind of experiment: Inhibition of collagen I production/secretion (ELISA of conditioned media). The format is cell-based. To be noted: for concentration at which collagen I secretion is completely inhibited: Table 2; for concentration at which collagen I secretion is inhibited: summary of Table 3; for factor of increase of the collagen inhibitory activity: relative to compound 7. The procedure:
In vitro fibrosis is assessed by measuring collagen synthesis after treatment of fibroblast cells with a profibrotic stimuli such as TGF-β1 or bleomycin. Collagen secretion into the media can be quantified in conditioned media using an appropriate ELISA kit.
Confluent monolayers of human fibroblasts, plated onto duplicate 35 mm dishes, were pretreated with various concentrations of compounds 2, 6, and 7 for 30 min followed by stimulation of the cells with 7 ng/mL TGF-β1 for 48 hrs. At the end of the experiment, conditioned media were collected and assessed for the presence of secreted collagen I, whereas cells were collected and lysed. Collagen I secretion was quantified using an ELISA kit from R&D Systems per the manufacturer's instructions and expressed as arbitrary absorbance units per µg of cell lysate. In Table 2, results are shown as % Control Collagen Production, defined as the amount of collagen I secreted per µg of cell lysate from fibroblast cultures stimulated with TGF-β1 in the absence of an inhibitor. […]
Confluent monolayers of human fibroblasts, plated onto duplicate 35 mm dishes, were pretreated with various concentrations of compounds 28 and 29 and Control Collagen Production determined according to the protocol set out in Example 5. In Table 3, results are shown as % Control Collagen Production, defined as the amount of collagen I secreted per µg of cell lysate from fibroblast cultures stimulated with TGF-β1 in the absence of an inhibitor. […]
Background: ELISA stands for enzyme-linked immunosorbent assay.

The mark [3] stands for this setting: control = BCAT1 activity in the absence of an inhibitor.
[4] abbreviates: compound concentration 2 nM (as printed in Table 2), 30 min pretreatment, 7 ng/mL TGF-β1 for 48 hrs.
Setting [5] is: compound concentration 5 nM (as printed in Table 2), 30 min pretreatment, 7 ng/mL TGF-β1 for 48 hrs.
[6] abbreviates: compound concentration 10 nM (as printed in Table 2), 30 min pretreatment, 7 ng/mL TGF-β1 for 48 hrs.

As a reminder, the remaining activity is the share of the control activity or signal that is left under treatment. Usually IC50 stands for the concentration that inhibits the measured activity by half.

Each structure is given as a SMILES string.

Consider `CC(=O)C(C)CC(Cc1ccccc1)C(=O)O` (centres unmarked) [Compound 2, 2-benzyl-4-methyl-5-oxohexanoic acid], for which, in test [1] (setting [3]), the remaining activity at 0.001 µM was 86%, the remaining activity at 0.01 µM came to 71% and the remaining activity at 0.1 µM was determined as 28%. Further, in test [1], the IC50 is 0.5 to 50 nM. Also, the “concentration at which collagen I secretion is completely inhibited” value in test [2] is 5 to 10 mM. Moreover, the “% Control Collagen Production” value in test [2] (setting [4]) is on record as 111%. In addition, the “% Control Collagen Production” value in test [2] (setting [5]) stood at 4%.
For `CC(CCC(=O)O)C(=O)c1ccccc1` (centres unmarked) [Compound 6, 4-methyl-5-oxo-5-phenylpentanoic acid], the “concentration at which collagen I secretion is completely inhibited” value in test [2] is 5 to 10 mM. The “% Control Collagen Production” value amounted to 105% in test [2] (setting [4]), 77% in test [2] (setting [5]) and 2% in test [2] (setting [6]).
On to `CC(=O)C(CCC(=O)O)c1ccccc1` (centres unmarked) [Compound 7, 5-oxo-4-phenylhexanoic acid], for which, in test [1] (setting [3]), the remaining activity at 0.001 µM is 67%, the remaining activity at 0.01 µM was found to be 0% and the remaining activity at 0.1 µM amounted to 0%. For the same molecule, in test [1], the concentration for half-maximal inhibition (IC50) lay within 0.5 to 50 nM. For the same molecule, in test [2], the “concentration at which collagen I secretion is completely inhibited” value lay in the range of 5 to 10 mM and the “concentration at which collagen I secretion is inhibited” value is 5 to 10 mM. Also, the “% Control Collagen Production” value in test [2] (setting [4]) stood at 150%. Moreover, in test [2] (setting [5]), the “% Control Collagen Production” value is 41%. Further, the “% Control Collagen Production” value in test [2] (setting [6]) was determined as 2%.
With `CC(=O)C(C)CC(CCC#N)C(=O)O` (centres unmarked) [Compound 8, 2-(2-cyanoethyl)-4-methyl-5-oxohexanoic acid], the remaining activity at 0.0005 µM in test [1] (compound concentration 0.5 nM, control = BCAT1 activity in the absence of an inhibitor) worked out at 47%. In addition, in test [1] (setting [3]), the remaining activity at 0.01 µM amounted to 23% and the remaining activity at 0.1 µM is 16%. Besides, the half-inhibitory concentration (IC50) in test [1] fell in the range of 0.5 to 50 nM.
`O=C(O)CCC(C(=O)c1ccccc1)c1ccccc1` (centres unmarked) [Compound 28, 5-oxo-4,5-diphenylpentanoic acid]: the “% Control Collagen Production” value came to 121% in test [2] (compound concentration 1 mM (Table 3), protocol of Example 5); 18% in test [2] (compound concentration 2 mM (Table 3), protocol of Example 5); 0% in test [2] (compound concentration 5 mM (Table 3), protocol of Example 5); 0% in test [2] (compound concentration 10 mM (Table 3), protocol of Example 5). In addition, the “factor of increase of the collagen inhibitory activity” value in test [2] is on record as 2-5. Moreover, the “concentration at which collagen I secretion is inhibited” value in test [2] worked out at 2 mM.
With `O=C(O)CCC(C(=O)c1ccc(Br)cc1)c1ccccc1` (centres unmarked) [Compound 29, 5-(4-bromophenyl)-5-oxo-4-phenylpentanoic acid], the “% Control Collagen Production” value in test [2] (compound concentration 0.01 mM (Table 3), protocol of Example 5) is listed as 88%; in test [2] (compound concentration 0.05 mM (Table 3), protocol of Example 5) it was 71%; in test [2] (compound concentration 0.1 mM (Table 3), protocol of Example 5) it was 8%. In addition, the “factor of increase of the collagen inhibitory activity” value in test [2] was 100. Also, in test [2], the “concentration at which collagen I secretion is inhibited” value was determined as 0.1 mM.
